Data on 63 compounds can be found in ChEMBL document CHEMBL3879881, “Substituted pyrazolyl compounds for the treatment of inflammation” (2005).

The structures appear in SMILES notation. Where only a bound is given, the exact number is not on record here.

The target of the assay is T1, Inhibitor of nuclear factor kappa-B kinase subunit beta (Homo sapiens, UniProt O14920).
T1 sequence (O14920 whole entry): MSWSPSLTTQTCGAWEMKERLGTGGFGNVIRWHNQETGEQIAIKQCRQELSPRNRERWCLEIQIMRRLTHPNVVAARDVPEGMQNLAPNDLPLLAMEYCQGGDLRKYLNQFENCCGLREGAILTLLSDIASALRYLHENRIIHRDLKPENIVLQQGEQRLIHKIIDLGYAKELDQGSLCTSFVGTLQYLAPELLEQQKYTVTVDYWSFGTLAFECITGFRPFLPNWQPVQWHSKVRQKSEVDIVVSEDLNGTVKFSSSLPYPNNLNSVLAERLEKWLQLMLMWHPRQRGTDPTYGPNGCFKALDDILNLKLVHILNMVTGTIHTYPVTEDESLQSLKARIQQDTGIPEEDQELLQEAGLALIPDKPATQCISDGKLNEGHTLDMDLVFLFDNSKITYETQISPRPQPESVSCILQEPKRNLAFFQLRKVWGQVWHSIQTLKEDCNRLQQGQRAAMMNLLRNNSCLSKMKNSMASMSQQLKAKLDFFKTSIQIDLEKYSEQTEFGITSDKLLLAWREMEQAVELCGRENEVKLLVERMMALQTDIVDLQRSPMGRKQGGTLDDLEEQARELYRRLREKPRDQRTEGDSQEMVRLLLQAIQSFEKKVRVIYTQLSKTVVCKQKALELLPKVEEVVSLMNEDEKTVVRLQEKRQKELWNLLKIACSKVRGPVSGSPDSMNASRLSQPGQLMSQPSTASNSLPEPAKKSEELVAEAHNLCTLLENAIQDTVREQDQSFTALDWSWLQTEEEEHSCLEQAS
Kind of assay: Inhibition of human recombinant C-terminal FLAG-epitope-tagged IKK2 expressed in baculovirus using biotinylated IkappaBalpha peptide as substrate assessed as decrease in [gamma-33P]-ATP incorporation in substrate after 30 mins by scintillation counting method.
The IC50 is the concentration that inhibits the measured activity by half. For the compound `C[S+]([O-])c1ccc(-n2nc(C(N)=O)c3c2-c2cc(NC(=O)c4cc(N)ccc4Cl)ccc2CC3)cc1` (stereo not drawn), the IC50 is at most 1000 nM. On to `NC(=O)c1nn(-c2ccc(S(N)(=O)=O)cc2)c2c1CCc1ccc(NC(=O)C34CC5CC(CC(C5)C3)C4)cc1-2`, for which the IC50 lay in the range of 1000 to 10000 nM.

For the compound `NC(=O)c1nn(-c2ccc3c(c2)OCO3)c2c1CCc1ccc(NC(=O)c3ccccc3OC(F)(F)F)cc1-2`, the IC50 is 1000 to 10000 nM. To `NC(=O)c1nn(-c2ccc(NC(=O)c3ccccc3)cc2)c2c1CCc1ccc(NC(=O)c3ccccc3Cl)cc1-2` belongs 1000 to 10000 nM. As for `CS(=O)(=O)c1ccc(C(=O)Nc2ccc3c(c2)-c2c(c(C(N)=O)nn2-c2ccc(OCC(O)CO)cc2)CC3)c(Cl)c1` (stereo not drawn), the figure is at most 1000 nM; as for `NC(=O)c1nn(-c2ccc(S(N)(=O)=O)cc2)c2c1CCc1ccc(NS(=O)(=O)c3ccc(-c4ccccc4)cc3)cc1-2`, 1000 to 10000 nM. As for `CS(=O)(=O)Nc1ccc2c(c1)-c1c(c(C(N)=O)nn1-c1ccccc1)CC2`, the figure is 1000 to 10000 nM. Turning to `C[C@@H](N)C(=O)Nc1ccc2c(c1)-c1c(c(C(N)=O)nn1-c1ccc(S(N)(=O)=O)cc1)CC2`, the IC50 lay in the range of 1000 to 10000 nM. Take `NC(=O)c1nn(-c2ccc(S(N)(=O)=O)cc2)c2c1CCc1ccc(NS(=O)(=O)c3ccc(Cl)c(Cl)c3)cc1-2`: the IC50 was 1000 to 10000 nM. As for `NC(=O)c1nn(-c2ccc(S(N)(=O)=O)cc2)c2c1CCc1ccc(NS(=O)(=O)CC(F)(F)F)cc1-2`, the figure is 1000 to 10000 nM. Take `NC(=O)c1nn(-c2ccc(S(N)(=O)=O)cc2)c2c1CCc1ccc(NC(=O)c3ccc(Cl)cc3)cc1-2`: the IC50 is at most 1000 nM.

`CS(=O)(=O)c1ccc(-n2nc(C(N)=O)c3c2-c2cc(NC(=O)C4CCC4)ccc2CC3)cc1`: the IC50 lay within 1000 to 10000 nM. For the compound `NC(=O)/C=C/c1ccc(-n2nc(C(N)=O)c3c2-c2cc(NC(=O)c4cccnc4Cl)ccc2CC3)cc1`, the IC50 is at most 1000 nM. To `NC(=O)c1nn(-c2ccc(F)cc2)c2c1CCc1ccc(NC(=O)c3cc(N4CCN(CCO)CC4)ncc3Cl)cc1-2` belongs at most 1000 nM; to `NC(=O)c1nn(-c2ccc(OC(F)(F)F)cc2)c2c1CCc1ccc(NC(=O)c3ccccc3Cl)cc1-2`, 1000 to 10000 nM; to `CC(=O)Oc1cccc(C(=O)Nc2ccc3c(c2)-c2c(c(C(N)=O)nn2-c2ccc(S(C)(=O)=O)cc2)CC3)c1C`, 1000 to 10000 nM. As for `C[C@@H]1CN(c2cc(C(=O)Nc3ccc4c(c3)-c3c(c(C(N)=O)nn3-c3ccc(F)cc3)CC4)c(Cl)cn2)C[C@H](C)N1`, the figure is at most 1000 nM; as for `C=CCN(CC=C)S(=O)(=O)c1ccc(-n2nc(C(N)=O)c3c2-c2cc(N)ccc2CC3)cc1`, 1000 to 10000 nM; as for `NC(=O)c1nn(-c2ccc(S(N)(=O)=O)cc2)c2c1CCc1ccc(NC(=O)c3ccc(F)cc3)cc1-2`, at most 1000 nM. To `NC(=O)c1nn(-c2ccc(S(N)(=O)=O)cc2)c2c1CCc1ccc(NC(=O)Nc3ccccc3)cc1-2` belongs 1000 to 10000 nM; to `CC1Cc2c(C(N)=O)nn(-c3ccc(F)cc3)c2-c2cc(NC(=O)c3cc(N4CCN(C)CC4)ccc3Cl)ccc21` (stereo not drawn), at most 1000 nM; to `NC(=O)c1nn(-c2ccc(-c3cccc(C(=O)O)c3)cc2)c2c1CCc1ccc(NC(=O)c3ccccc3Cl)cc1-2`, 1000 to 10000 nM. `NC(=O)c1nn(-c2ccc(S(=O)(=O)CC3CC3)cc2)c2c1CCc1ccc(NC(=O)c3ccccc3Cl)cc1-2`: the IC50 is 1000 to 10000 nM.

As for `NC(=O)c1nn(-c2ccc(-c3cccnc3)cc2)c2c1CCc1ccc(NC(=O)c3ccccc3Cl)cc1-2`, the IC50 is 1000 to 10000 nM.

In the case of `CCCS(=O)(=O)c1ccc(-n2nc(C(N)=O)c3c2-c2cc(NC(=O)c4cccnc4Cl)ccc2CC3)cc1`, the IC50 lay in the range of 1000 to 10000 nM. `NC(=O)c1nn(-c2ccc(S(N)(=O)=O)cc2)c2c1CCc1ccc(NS(=O)(=O)Cc3ccccc3)cc1-2`: the IC50 was in the range of 1000 to 10000 nM. As for `CS(=O)(=O)Nc1ccc2c(c1)-c1c(c(C(N)=O)nn1-c1cccc(O)c1)CC2`, the IC50 is 1000 to 10000 nM. To `CC(C)(C)C(=O)ONCCCCC(=O)Nc1ccc(-n2nc(C(N)=O)c3c2-c2cc(NC(=O)c4ccccc4Cl)ccc2CC3)cc1` belongs 1000 to 10000 nM. As for `NC(=O)c1nn(-c2ccc(S(N)(=O)=O)cc2)c2c1CCc1ccc(NC(=O)c3ccccc3F)cc1-2`, the figure is at most 1000 nM; as for `C#CCN(CC#C)S(=O)(=O)c1ccc(-n2nc(C(N)=O)c3c2-c2cc(NC(=O)c4ccccc4Cl)ccc2CC3)cc1`, 1000 to 10000 nM; as for `NCc1cc(C(=O)Nc2ccc3c(c2)-c2c(c(C(N)=O)nn2-c2ccc4c(c2)OCO4)CC3)c(Cl)cn1`, at most 1000 nM.

With `C[C@@H]1CN(c2cc(C(=O)Nc3ccc4c(c3)-c3c(c(C(N)=O)nn3-c3ccc(F)cc3)CC4)c(Cl)cn2)C[C@H](C)N1C`, the IC50 is at most 1000 nM. To `CN(C)CCOc1ccc(Cl)c(C(=O)Nc2ccc3c(c2)-c2c(c(C(N)=O)nn2-c2ccc4c(c2)OCO4)CC3)c1` belongs 1000 to 10000 nM; to `CC(C)C(=O)Nc1ccc2c(c1)-c1c(c(C(N)=O)nn1-c1ccc(S(N)(=O)=O)cc1)CC2`, 1000 to 10000 nM; to `CN1CCCN(c2cc(C(=O)Nc3ccc4c(c3)-c3c(c(C(N)=O)nn3-c3ccc(F)cc3)CC4)c(Cl)cn2)CC1`, at most 1000 nM. As for `Cc1nnsc1C(=O)Nc1ccc2c(c1)-c1c(c(C(N)=O)nn1-c1ccc3c(c1)OCO3)CC2`, the figure is 1000 to 10000 nM; as for `NC(=O)c1nn(-c2ccc3c(c2)OCO3)c2c1CCc1ccc(NC(=O)c3cc(CCN4CCOCC4)ncc3Cl)cc1-2`, at most 1000 nM. As for `NC(=O)c1nn(-c2ccc(S(N)(=O)=O)cc2)c2c1CCc1ccc(NC(=O)c3ccco3)cc1-2`, the figure is 10000 to 100000 nM. `CN1CCN(c2cc(C(=O)Nc3ccc4c(c3)-c3c(c(C(N)=O)nn3-c3ccc5c(c3)OCO5)CC4)c(Cl)cn2)CC1`: the half-maximal inhibitory concentration (IC50) was at most 1000 nM. With `NC(=O)c1nn(-c2ccc(S(N)(=O)=O)cc2)c2c1CCc1ccc(NC(=O)c3ccccc3Cl)cc1-2`, the IC50 was at most 1000 nM. For the compound `Cc1ccc(CNc2ccc3c(c2)-c2c(c(C(N)=O)nn2-c2ccc(S(N)(=O)=O)cc2)CC3)cc1`, the IC50 was 10000 to 100000 nM.

`COc1ccc(S(=O)(=O)Nc2ccc3c(c2)-c2c(c(C(N)=O)nn2-c2ccc(S(N)(=O)=O)cc2)CC3)cc1OC`: the half-maximal inhibitory concentration (IC50) is 10000 to 100000 nM.

Turning to `NC(=O)c1nn(-c2ccc(OCC(O)CO)cc2)c2c1CCc1ccc(NC(=O)c3cc(N)ccc3Cl)cc1-2` (stereo not drawn), the 50% inhibitory concentration (IC50) was at most 1000 nM. To `NC(=O)c1nn(-c2cc(F)c(N)c(F)c2)c2c1CCc1ccc(NC(=O)c3ccncc3Cl)cc1-2` belongs at most 1000 nM. To `NC(=O)c1nn(-c2ccc(F)c(F)c2)c2c1CCc1ccc(NC(=O)c3cccc(Cl)c3Cl)cc1-2` belongs 1000 to 10000 nM; to `NC(=O)c1nn(-c2ccc(/C=C/C(=O)NCc3ccccc3)cc2)c2c1CCc1ccc(NC(=O)c3ccccc3Cl)cc1-2`, 1000 to 10000 nM. In the case of `CS(=O)(=O)c1ccc(-n2nc(C(N)=O)c3c2-c2cc(NC(=O)c4ccccc4N)ccc2CC3)cc1`, the IC50 was 1000 to 10000 nM. Consider `NC(=O)c1nn(-c2ccc(S(N)(=O)=O)cc2)c2c1CCc1ccc(NS(=O)(=O)c3cc(C(F)(F)F)cc(C(F)(F)F)c3)cc1-2`, for which the IC50 was in the range of 1000 to 10000 nM.

For the compound `NC(=O)c1nn(-c2ccc(S(N)(=O)=O)cc2)c2c1CCc1ccc(NS(=O)(=O)c3cccc4cnccc34)cc1-2`, the IC50 lay within 1000 to 10000 nM. As for `CC1Cc2c(C(N)=O)nn(-c3ccc(N)cc3F)c2-c2cc(NC(=O)c3ccncc3Cl)ccc21` (stereo not drawn), the figure is at most 1000 nM; as for `COCCN1CCN(c2cc(C(=O)Nc3ccc4c(c3)-c3c(c(C(N)=O)nn3-c3ccc(F)cc3)CC4)c(Cl)cn2)CC1`, at most 1000 nM. Consider `NC(=O)c1nn(-c2cccc(O)c2)c2c1CCc1ccc(NC(=O)c3cc(N)ccc3Cl)cc1-2`, for which the IC50 is at most 1000 nM. `NC(=O)c1nn(-c2ccc(S(N)(=O)=O)cc2)c2c1CCc1ccc(NC(=O)c3ccccc3C(F)(F)F)cc1-2`: the IC50 was at most 1000 nM. To `CC(C)c1ccc(-n2nc(C(N)=O)c3c2-c2cc(NC(=O)c4ccccc4Cl)ccc2CC3)cc1` belongs 1000 to 10000 nM; to `NC(=O)c1nn(-c2ccc(-n3cccc3)cc2)c2c1CCc1ccc(NC(=O)c3ccccc3Cl)cc1-2`, 1000 to 10000 nM; to `NC(=O)c1nn(-c2ccc(/C=C3\CCOC3=O)cc2)c2c1CCc1ccc(NC(=O)c3ccccc3Cl)cc1-2`, 1000 to 10000 nM.

Regarding `NC(=O)c1nn(-c2ccc(OCC(O)CO)cc2)c2c1CCc1ccc(NC(=O)c3ccncc3Cl)cc1-2` (stereo not drawn), the IC50 is at most 1000 nM.

Turning to `NC(=O)c1nn(-c2ccc(F)cc2)c2c1CCc1ccc(NC(=O)c3cc(-c4ccncc4)ncc3Cl)cc1-2`, the IC50 is at most 1000 nM. To `NCCCS(=O)(=O)c1ccc(-n2nc(C(N)=O)c3c2-c2cc(NC(=O)c4cccnc4Cl)ccc2CC3)cc1` belongs 1000 to 10000 nM. As for `Cc1cc(Cl)ncc1C(=O)Nc1ccc2c(c1)-c1c(c(C(N)=O)nn1-c1ccc3c(c1)OCO3)CC2`, the figure is at most 1000 nM; as for `NC(=O)c1nn(-c2ccc(OCC(O)CO)cc2)c2c1CCc1ccc(NC(=O)c3ccccc3Cl)cc1-2` (stereo not drawn), at most 1000 nM. As for `NC(=O)c1nn(-c2ccc(S(N)(=O)=O)cc2)c2c1CCc1ccc(NS(=O)(=O)c3ccc(Cl)cc3Cl)cc1-2`, the figure is 1000 to 10000 nM; as for `CC(O)c1ccc(-n2nc(C(N)=O)c3c2-c2cc(NC(=O)c4cccnc4Cl)ccc2CC3)cc1` (stereo not drawn), at most 1000 nM.
